Where only a bound is given, the exact number is not on record here.

The nature of test [1]: Inhibition of quorum sensing system in Pseudomonas aeruginosa PAO1 assessed as inhibition of pyocyanin production incubated for 24 hrs by optical density based analysis.
Test [2] can be described thus: Inhibition of quorum sensing system in Pseudomonas aeruginosa PAO1 assessed as inhibition of pyocyanin production at 10 uM incubated for 24 hrs by optical density based analysis relative to control.
A further test concerns Pseudomonas aeruginosa. The experiment in a line: Synergistic antibacterial activity against Pseudomonas aeruginosa PAO1 infected in Caenorhabditis elegans assessed as worm survival rate at 0.125 ug/ml incubated for 72 hrs in presence of compound 16e by bright-field microscopy relative to control. The class given is functional.

Consider `Cc1cc(=O)c(O)c(CNCc2cn(-c3cccc(Cl)c3)nn2)n1C`, for which the IC50 in test [1] is more than 50 µM.
On the same count and under the same terms, the value for `Cc1cc(=O)c(O)c(CNCc2cn(-c3ccccn3)nn2)n1C` was more than 50 µM.
`Cc1cc(=O)c(O)c(COCc2cn(-c3ccc(Oc4ccccc4)cc3)nn2)n1C`: the IC50 in test [1] was found to be 5.1 µM. For the same compound, the inhibition in test [2] worked out at 55.1%.
For `COC(=O)c1ccc(-n2cc(CNCc3c(O)c(=O)cc(C)n3C)nn2)cc1`, the IC50 in test [1] came out at 45.8 µM.
Regarding `CCCCCCCCn1cc(CNCc2cc(=O)c(O)cn2C)nn1`, the IC50 in test [1] is 21 µM.
The same measure, in the same setting: the value for `Cc1cc(=O)c(O)c(CNCc2cn(-c3ccc(N(C)C)cc3)nn2)n1C` was 33.2 µM; that for `Cc1cc(=O)c(O)c(CNCC(=O)Nc2ccc(Oc3ccccc3)cc2)n1C` was 19.4 µM.
Regarding `CCCCCCCCn1cc(CNCc2c(O)c(=O)cc(C)n2C)nn1`, the IC50 in test [1] is 4.6 µM. Besides, the inhibition in test [2] stood at 64%.
As for `Cc1cc(=O)c(O)c(CNCc2cn(-c3ccccc3OC(F)(F)F)nn2)n1C`, the IC50 in test [1] turned out to be 8.1 µM. Further, in test [2], the inhibition was found to be 50.1%.
The like results for `CCCCCCCCCn1cc(CNCc2c(O)c(=O)cc(C)n2C)nn1` were, in that order, 6.6 µM and 51.2%.
For `Cc1ccc(-n2cc(CNCc3c(O)c(=O)cc(C)n3C)nn2)cc1`, the IC50 in test [1] came to 8.5 µM. Moreover, the inhibition in test [2] worked out at 44.9%.
For `Cc1cc(=O)c(O)c(CNCc2cn(-c3ccccc3[N+](=O)[O-])nn2)n1C`, in test [1], the IC50 was more than 50 µM.
In the case of `Cc1cc(=O)c(O)c(CNCc2cn(-c3ccc(Br)cc3)nn2)n1C`, the IC50 in test [1] turned out to be 46.2 µM.
Same read-out and setting: the value for `CCCCn1cc(CNCc2c(O)c(=O)cc(C)n2C)nn1` was more than 50 µM; that for `COc1ccccc1-n1cc(CNCc2c(O)c(=O)cc(C)n2C)nn1` was 29.2 µM; that for `COC(=O)c1ccccc1-n1cc(CNCc2c(O)c(=O)cc(C)n2C)nn1` was 28.4 µM.
Same read-out and setting: the value for `Cc1cc(=O)c(O)c(CNCc2cn(-c3ccc(F)cc3)nn2)n1C` was 18.2 µM.
With `Cc1cc(=O)c(O)c(CNCc2cn(-c3cccc(F)c3)nn2)n1C`, in test [1], the IC50 turned out to be 45.8 µM.
As to `CCCCCCn1cc(CNCc2c(O)c(=O)cc(C)n2C)nn1`, in test [1], the IC50 amounted to 35.9 µM.
The same measure, in the same setting: the value for `CCCCCn1cc(CNCc2c(O)c(=O)cc(C)n2C)nn1` was 35.3 µM.
On the same count and under the same terms, the value for `Cc1cc(=O)c(O)c(CNCc2cn(-c3ccccc3C#N)nn2)n1C` was more than 50 µM.
Regarding `Cn1cc(O)c(=O)cc1CNCc1cn(-c2ccc(Oc3ccccc3)cc2)nn1`, the IC50 in test [1] was 6.1 µM. In addition, the inhibition in test [2] was 58.3%.
The like results for `COc1ccc(-n2cc(CNCc3c(O)c(=O)cc(C)n3C)nn2)cc1` were, in that order, 6.9 µM and 52%.
In the case of `Cc1cc(=O)c(O)c(CNCc2cn(-c3ccc(OC(F)(F)F)cc3)nn2)n1C`, the IC50 in test [1] was 4 µM. Also, the inhibition in test [2] amounted to 66.7%.
`CC(=O)c1ccccc1-n1cc(CNCc2c(O)c(=O)cc(C)n2C)nn1`: the IC50 in test [1] worked out at 24.8 µM.
Same read-out and setting: the value for `CCCCCCCn1cc(CNCc2c(O)c(=O)cc(C)n2C)nn1` was 22 µM; that for `Cc1cc(=O)c(O)c(CNCc2cn(-c3ccc(N)cc3)nn2)n1C` was 44.9 µM.
Consider `Cc1cc(=O)c(O)cn1Cc1cn(-c2ccc(Oc3ccccc3)cc2)nn1`, for which, in test [1], the IC50 was 8.4 µM. Further, the inhibition in test [2] came to 43.3%.
As to `Cc1cc(=O)c(O)c(CNCc2cn(-c3ccc(C#N)cc3)nn2)n1C`, in test [1], the IC50 was more than 50 µM.
Same read-out and setting: the value for `COc1cccc(-n2cc(CNCc3c(O)c(=O)cc(C)n3C)nn2)c1` was 42 µM.
On the same count and under the same terms, the value for `Cc1cc(=O)c(O)c(CNCc2cn(-c3ccc(O)cc3)nn2)n1C` was 24 µM.
Still for that read-out and setting: the value for `Cc1cc(=O)c(O)c(CNCc2cn(-c3ccc(N4CCN(C)CC4)cc3)nn2)n1C` was more than 50 µM.
Turning to `Cc1cc(=O)c(O)c(CNCc2cn(-c3ccc(C(F)(F)F)cc3)nn2)n1C`, the IC50 in test [1] worked out at 7.7 µM. The inhibition in test [2] is 60.1%.
Consider `Cc1cc(=O)c(O)c(CNCc2cn(-c3ccccc3Br)nn2)n1C`, for which the IC50 in test [1] came to 32.2 µM.
With `Cc1cc(=O)c(O)c(CNCc2cn(-c3ccccc3C(F)(F)F)nn2)n1C`, the half-inhibitory concentration (IC50) in test [1] came to 9.8 µM. Also, in test [2], the inhibition is 49%.
In the case of `Cc1cc(=O)c(O)c(CNCc2cn(-c3ccccc3Cl)nn2)n1C`, the IC50 in test [1] is 18.4 µM.
Still for that read-out and setting: the value for `Cc1cc(=O)c(O)c(CNCc2cn(-c3ccncc3)nn2)n1C` was more than 50 µM.
`O=C(O)c1cn(C2CC2)c2cc(N3CCNCC3)c(F)cc2c1=O` [CIPROFLOXACIN]: the survival at 0.125 µg/mL with Pseudomonas aeruginosa was 35.7%.
Consider `Cc1cc(=O)c(O)c(CNCc2cn(-c3ccccc3)nn2)n1C`, for which the IC50 in test [1] came to 34.7 µM.
The same measure, in the same setting: the value for `Cc1cc(=O)c(O)c(CNCc2cn(-c3ccc(Cl)cc3)nn2)n1C` was 15.2 µM; that for `Cc1cc(=O)c(O)c(CNCc2cn(-c3ccccc3F)nn2)n1C` was 18.2 µM.
The same measure, in the same setting: the value for `CC(=O)c1ccc(-n2cc(CNCc3c(O)c(=O)cc(C)n3C)nn2)cc1` was 37.4 µM; that for `Cn1cc(O)c(=O)cc1CNCc1cn(-c2ccc(OC(F)(F)F)cc2)nn1` was 18.9 µM.

As a reminder, the IC50 is the concentration needed to halve the response being measured. What is called inhibition is the change of the read-out against control, counted positive when it falls.

These data come from ChEMBL document CHEMBL5344424, “3-Hydroxypyridin-4(1H)-one Derivatives as pqs Quorum Sensing Inhibitors Attenuate Virulence and Reduce Antibiotic Resistance in Pseudomonas aeruginosa” (J Med Chem, 2023).
